# Key:
# [1] = molecular target: T1, SYNE2_C2994 (Homo sapiens, UniProt Q8WXH0); experiment: IA-DTB cysteine engagement; type: binding; settings: 22Rv1 cells, 20 μM probe, 1 h, relative to DMSO
# T1 construct: endogenous in cells; host or cells: 22Rv1
# How it was run: (§1)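 In-situ probe treatment of cells; lysate 2 mg/mL, IA-DTB 1 h RT; MeOH/CHCl3 precipitation, DTT/iodoacetamide, trypsin; streptavidin enrichment; TMT labeling, high-pH fractionation. Ratio = TMT reporter intensity / mean DMSO channels, median-normalized.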
# [2] = molecular target: T2, TM7SF2_C184 (Homo sapiens, UniProt O76062); experiment: IA-DTB cysteine engagement; type: binding; settings: 22Rv1 cells, 20 μM probe, 1 h, relative to DMSO
# T2 construct: endogenous in cells; host or cells: 22Rv1
# T2 sequence (O76062 1-418): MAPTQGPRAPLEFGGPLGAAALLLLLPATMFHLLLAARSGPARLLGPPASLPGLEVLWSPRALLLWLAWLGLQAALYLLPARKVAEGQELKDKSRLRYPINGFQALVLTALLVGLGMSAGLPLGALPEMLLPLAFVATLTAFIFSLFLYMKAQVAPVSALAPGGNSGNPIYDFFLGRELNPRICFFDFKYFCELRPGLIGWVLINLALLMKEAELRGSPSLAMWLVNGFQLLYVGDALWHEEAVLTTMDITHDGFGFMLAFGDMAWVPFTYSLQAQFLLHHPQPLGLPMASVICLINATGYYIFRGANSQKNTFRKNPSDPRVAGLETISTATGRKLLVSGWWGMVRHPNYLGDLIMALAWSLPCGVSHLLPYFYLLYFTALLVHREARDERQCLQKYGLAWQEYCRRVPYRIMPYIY
# How it was run: as §1
% engagement SYNE2_C2994 [1] [%],% engagement TM7SF2_C184 [2] [%],Structure (SMILES)
37.5,100,"C=CC(=O)N1C[C@H](c2ccc(Br)cc2)[C@H]1C(=O)Nc1cccc2cccnc12 [MY-3B, (2S,3S)-1-acryloyl-3-(4-bromophenyl)-N-(quinolin-8-yl)azetidine-2-carboxamide]"
75.75,64,"C=CC(=O)N1C[C@H](c2ccc(Br)cc2)[C@@H]1C(=O)Nc1cccc2cccnc12 [MY-1B, (2R,3S)-1-acryloyl-3-(4-bromophenyl)-N-(quinolin-8-yl)azetidine-2-carboxamide]"
11.25,66.5,"C=CC(=O)N1C[C@H](c2ccc(Br)cc2)[C@H]1C(=O)Nc1cccc2cccnc12 [MY-3A, (2S,3S)-1-acryloyl-3-(4-bromophenyl)-N-(quinolin-8-yl)azetidine-2-carboxamide]"
29.5,86.5,"C=CC(=O)N1C[C@@H](c2ccc(Br)cc2)[C@H]1C(=O)Nc1cccc2cccnc12 [MY-1A, (2S,3R)-1-acryloyl-3-(4-bromophenyl)-N-(quinolin-8-yl)azetidine-2-carboxamide]"

# Source: patent US20250034216A1, “STEREOSELECTIVE COVALENT LIGANDS FOR ONCOGENIC AND IMMUNOLOGICAL PROTEINS” (The Scripps Research Institute, priority 2021, published 2025)
